Molecules are shown by their SMILES.

For assay [1], the target named is Metabotropic glutamate receptor 4 (Rattus norvegicus, UniProt P31423).
Assay [2] addresses Metabotropic glutamate receptor 2 (Homo sapiens, UniProt Q14416).

Sequence of Metabotropic glutamate receptor 4 (P31423 whole entry): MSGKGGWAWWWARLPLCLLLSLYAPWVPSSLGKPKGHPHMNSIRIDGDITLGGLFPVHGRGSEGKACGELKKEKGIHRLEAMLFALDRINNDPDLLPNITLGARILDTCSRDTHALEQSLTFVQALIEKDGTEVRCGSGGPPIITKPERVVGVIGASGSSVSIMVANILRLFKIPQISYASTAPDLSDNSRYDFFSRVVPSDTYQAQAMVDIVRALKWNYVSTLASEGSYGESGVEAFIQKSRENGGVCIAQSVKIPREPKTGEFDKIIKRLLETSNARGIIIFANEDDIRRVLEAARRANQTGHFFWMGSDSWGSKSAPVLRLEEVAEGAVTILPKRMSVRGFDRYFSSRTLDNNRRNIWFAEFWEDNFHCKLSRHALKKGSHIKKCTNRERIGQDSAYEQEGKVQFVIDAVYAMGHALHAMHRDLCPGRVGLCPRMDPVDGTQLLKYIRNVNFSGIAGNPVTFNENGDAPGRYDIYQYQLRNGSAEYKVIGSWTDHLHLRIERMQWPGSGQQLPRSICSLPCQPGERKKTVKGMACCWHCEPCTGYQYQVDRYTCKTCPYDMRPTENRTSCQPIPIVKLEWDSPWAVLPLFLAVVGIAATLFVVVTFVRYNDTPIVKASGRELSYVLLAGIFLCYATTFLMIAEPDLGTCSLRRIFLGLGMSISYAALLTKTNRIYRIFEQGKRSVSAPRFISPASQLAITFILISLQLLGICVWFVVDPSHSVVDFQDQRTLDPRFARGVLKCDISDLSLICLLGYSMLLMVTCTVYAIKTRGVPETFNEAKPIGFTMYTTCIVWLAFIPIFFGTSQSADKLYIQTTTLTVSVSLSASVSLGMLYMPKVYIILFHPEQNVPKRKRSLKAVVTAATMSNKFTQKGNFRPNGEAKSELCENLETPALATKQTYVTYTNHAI
Sequence of Metabotropic glutamate receptor 2 (Q14416 whole entry): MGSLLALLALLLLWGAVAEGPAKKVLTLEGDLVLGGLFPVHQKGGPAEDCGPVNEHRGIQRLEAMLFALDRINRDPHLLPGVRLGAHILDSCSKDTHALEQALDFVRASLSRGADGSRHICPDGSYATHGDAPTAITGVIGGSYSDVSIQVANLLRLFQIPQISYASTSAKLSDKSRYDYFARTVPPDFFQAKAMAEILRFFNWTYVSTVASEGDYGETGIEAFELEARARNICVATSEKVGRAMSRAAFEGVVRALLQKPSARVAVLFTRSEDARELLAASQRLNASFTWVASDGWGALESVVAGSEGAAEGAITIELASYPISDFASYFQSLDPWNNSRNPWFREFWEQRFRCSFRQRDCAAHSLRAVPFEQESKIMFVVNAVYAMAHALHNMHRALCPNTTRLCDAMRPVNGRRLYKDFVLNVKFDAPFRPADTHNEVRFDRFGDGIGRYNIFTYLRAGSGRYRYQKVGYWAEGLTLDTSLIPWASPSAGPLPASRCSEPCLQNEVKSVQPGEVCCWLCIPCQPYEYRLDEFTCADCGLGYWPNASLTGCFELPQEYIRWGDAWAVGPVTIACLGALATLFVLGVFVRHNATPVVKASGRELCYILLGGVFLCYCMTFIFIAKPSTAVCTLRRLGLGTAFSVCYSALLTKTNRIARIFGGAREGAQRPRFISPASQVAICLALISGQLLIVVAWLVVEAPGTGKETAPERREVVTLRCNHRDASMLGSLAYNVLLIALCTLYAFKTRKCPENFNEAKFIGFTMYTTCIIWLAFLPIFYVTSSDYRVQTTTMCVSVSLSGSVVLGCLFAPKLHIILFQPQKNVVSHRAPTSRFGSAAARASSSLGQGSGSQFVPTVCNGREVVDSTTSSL

With `N[C@@H](COP(=O)(O)O)C(=O)O`, the Ki – broadly, the dissociation constant of the complex between target and ligand, obtained from inhibition or displacement – in assay [1] came out at 2.3 µM.

For `N[C@@H](CCP(=O)(O)O)C(=O)O`, in assay [1], the affinity, expressed as Ki, was 0.4 µM.

For `NC(C(=O)O)c1ccc(C(=O)O)c(O)c1` (stereo not drawn), the Ki in assay [2] was over 10 µM.

In the case of `CC(N)(C(=O)O)c1ccc(P(=O)(O)O)cc1` (stereo not drawn), the Ki in assay [1] and in assay [2] was over 10 µM throughout.

With `C[C@@](N)(C(=O)O)c1ccc(C(=O)O)cc1` (racemic), the Ki in assay [2] is over 10 µM.

With `N[C@@]1(C(=O)O)CC[C@H](C(=O)O)C1` [1S, 3R-ACPD], the Ki in assay [1] and in assay [2] was over 10 µM in each case.

On to `N[C@@H](Cn1oc(=O)[nH]c1=O)C(=O)O` [2-amino-3-(3,5-dioxo[1,2,4]oxadiazolidin-2-yl)propionic acid], for which the Ki in assay [1] and in assay [2] was over 10 µM each time.

Consider `NC(C(=O)O)c1ccc(C(=O)O)cc1` (stereo not drawn) [4-(Amino-carboxy-methyl)-benzoic acid], for which the Ki in assay [2] was over 10 µM.

For the compound `N[C@H](C(=O)O)[C@H]1C[C@@H]1C(=O)O` [(1S,2S)-2-((S)-Amino-carboxy-methyl)-cyclopropanecarboxylic acid], the Ki was 8.9 µM in assay [1] and 0.49 µM in assay [2].

For the compound `N[C@@]1(C(=O)O)CC[C@H](CC(=O)O)C1` [(1S,3S)-HOMO-ACPD], the Ki in assay [1] and in assay [2] was over 10 µM in each case.

In turn, `NC(C(=O)O)c1cc(=O)[nH]o1` (stereo not drawn) [Amino-(3-hydroxy-isoxazol-5-yl)-acetic acid(Ibotenic acid)] had a Ki in assay [1] of over 10 µM.

In assay [1], `N[C@@H](CCC(=O)O)C(=O)O` [L-Glutamic acid] gave a Ki of over 10 µM.

Compound `C[C@](N)(C(=O)O)C1C[C@@H]1C(=O)O` (stereo partly drawn) [MCCG-I] returned a Ki in assay [2] of over 10 µM.

Consider `CC(N)(CCP(=O)(O)O)C(=O)O` (stereo not drawn) [NSC_1795545], for which the inhibition constant Ki in assay [1] and in assay [2] was over 10 µM throughout.

As to `CC(N)(C(=O)O)c1ccc(S(=O)(=O)O)cc1` (stereo not drawn) [NSC_3964410], the Ki in assay [1] and in assay [2] was over 10 µM each time.

As to `CC(N)(C(=O)O)c1ccc(-n2cnnn2)cc1` (stereo not drawn) [NSC_5311456], the Ki in assay [2] was over 10 µM.

Values taken from BindingDB's records for PubMed 8863838 (Upr Centre, 1996).
